Values quoted from earlier work in patent publication US4978531A, “Clebopride transdermal patch” (Fordonal, S.A., priority 1987, dated 1990).

Conditions: in vivo

biological half-life: about 1.5 hours
Structure (SMILES): COc1cc(N)c(Cl)cc1C(=O)NC1CCN(Cc2ccccc2)CC1 [clebopride]
